Measurements: the supplement of paper PMC4862054

Legend:
Conditions in all cases: incubation time: 72 h
[1] = system: MDA-MB-453; experiment: normalised viability (% of control), CellTiter-Blue; higher = more viable cells (about 100 = DMSO control)
Protocol: (§1)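 DSRT, CellTiter-Blue viability, 72 h incubation. Signal is normalised to DMSO and benzethonium chloride controls. Value is the normalised response at dose 6.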

[2] = system: DU-4475; experiment: as above
Protocol: as §1

[3] = system: CAL-51; experiment: as above
Protocol: as §1

[4] = system: HDQ-P1; experiment: as above
Protocol: as §1

[5] = system: CAL-148; experiment: as above
Protocol: as §1

[6] = system: CAL-85-1; experiment: as above
Protocol: as §1

[7] = system: MDA-MB-453; experiment: normalised response (% of control), CellTox Green; higher = less cell death (100 = DMSO, 0 = benzethonium chloride kill control)
Summary of the method: (§2)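 After 72 h with compound in 384-well plates, breast cancer cell lines seeded as 20 µl suspension were read for CellTox Green fluorescence at 485/520 nm. CellTiter-Glo luminescence was then read after 10 min at room temperature. Compound was present at 5 concentrations in 10-fold steps over a 10,000-fold range set per compound, and plates were normalised to 0.1 % DMSO (100) and a positive kill control (0). Values are normalised signals, each at a single concentration.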

[8] = system: DU-4475; experiment: as above
Summary of the method: as §2

[9] = system: MCF-10A; experiment: as above
Summary of the method: as §2

[10] = system: CAL-51; experiment: as above
Summary of the method: as §2

[11] = system: HCC1937; experiment: as above
Summary of the method: as §2

[12] = system: MFM-223; experiment: as above
Summary of the method: as §2

[13] = system: BT-549; experiment: as above
Summary of the method: as §2

[14] = system: HDQ-P1; experiment: as above
Summary of the method: as §2

[15] = system: CAL-148; experiment: as above
Summary of the method: as §2

[16] = system: MDA-MB-231; experiment: as above
Summary of the method: as §2

[17] = system: Hs578T; experiment: as above
Summary of the method: as §2

[18] = system: MDA-MB-468; experiment: as above
Summary of the method: as §2

[19] = system: CAL-120; experiment: as above
Summary of the method: as §2

[20] = system: CAL-85-1; experiment: as above
Summary of the method: as §2

[21] = system: HCC1143; experiment: as above
Summary of the method: as §2

[22] = system: MDA-MB-436; experiment: as above
Summary of the method: as §2

[23] = system: HCC1599; experiment: as above
Summary of the method: as §2

[24] = system: BT-474; experiment: as above
Summary of the method: as §2

[25] = system: MDA-MB-453; experiment: normalised response (% of control), CellTiter-Glo; higher = more viable cells (100 = DMSO, 0 = benzethonium chloride kill control)
Protocol: (§3)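 DSRT, 72 h incubation, CellTox Green / CellTiter-Glo readout. Signal is normalised to DMSO and benzethonium chloride controls. Value is the normalised response at the highest dose.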

[26] = system: DU-4475; experiment: as above
Protocol: as §3

[27] = system: MCF-10A; experiment: as above
Protocol: as §3

[28] = system: CAL-51; experiment: as above
Protocol: as §3

[29] = system: HCC1937; experiment: as above
Protocol: as §3

[30] = system: MFM-223; experiment: as above
Protocol: as §3

[31] = system: BT-549; experiment: as above
Protocol: as §3

[32] = system: SK-BR-3; experiment: as above
Protocol: as §3

[33] = system: HDQ-P1; experiment: as above
Protocol: as §3

[34] = system: CAL-148; experiment: as above
Protocol: as §3

[35] = system: MDA-MB-231; experiment: as above
Protocol: as §3

[36] = system: Hs578T; experiment: as above
Protocol: as §3

[37] = system: MDA-MB-468; experiment: as above
Protocol: as §3

[38] = system: CAL-120; experiment: as above
Protocol: as §3

[39] = system: CAL-85-1; experiment: as above
Protocol: as §3

[40] = system: HCC1143; experiment: as above
Protocol: as §3

[41] = system: MDA-MB-436; experiment: as above
Protocol: as §3

[42] = system: HCC1599; experiment: as above
Protocol: as §3

[43] = system: BT-474; experiment: as above
Protocol: as §3

`Nc1ncn([C@@H]2O[C@H](CO)[C@@H](O)[C@H]2O)c(=O)n1` [Azacitidine] (300 nM) was tested, and the normalised viability [1] was 91.9%, the normalised viability [2] was 90% and the normalised viability [3] was 104%. It also gave a normalised viability [4] of 84.5%, a normalised viability [5] of 95.3% and a normalised viability [6] of 93.1%.
With `CC[C@@H]1C(=O)OC[C@@H]1Cc1cncn1C` [Pilocarpine] (1200 nM) the normalised viability [1] was 105%, the normalised viability [2] was 88.2% and the normalised viability [3] was 97.6%. For the same compound, the normalised viability [4] was 113%, the normalised viability [5] was 101% and the normalised viability [6] was 100%.
`CC1=C2C[C@H]3[C@@H](CC=C4C[C@@H](O)CC[C@@]43C)[C@@H]2CC[C@]12O[C@@H]1C[C@H](C)CN[C@H]1[C@H]2C` [Cyclopamine] (300 nM) was tested, and the normalised viability [1] was 113%, the normalised viability [2] was 105% and the normalised viability [3] was 115%. It also gave a normalised viability [4] of 79.2%, a normalised viability [5] of 115% and a normalised viability [6] of 106%.
With `Cn1cnc2c(F)c(Nc3ccc(Br)cc3Cl)c(C(=O)NOCCO)cc21` [Selumetinib] (300 nM) the normalised viability [1] was 121%, the normalised viability [2] was 7.86% and the normalised viability [3] was 95.1%. It also gave a normalised viability [4] of 41.9%, a normalised viability [5] of 89.6% and a normalised viability [6] of 83.4%.
In the case of `C[C@]12CC[C@@H]3c4ccc(OC(=O)N(CCCl)CCCl)cc4CC[C@H]3[C@@H]1CC[C@@H]2O` [Estramustine] (29.7 nM), the normalised viability [1] is reported as 97.2%, the normalised viability [2] is reported as 71.4% and the normalised viability [3] is reported as 79.1%. It also gave a normalised viability [4] of 95.3%, a normalised viability [5] of 116% and a normalised viability [6] of 97.2%.
`O=P(O)(O)C(O)(Cn1ccnc1)P(=O)(O)O` [Zoledronic acid] (300 nM) showed a normalised viability [1] of 93.7%, a normalised viability [2] of 115% and a normalised viability [3] of 104%. It also gave a normalised viability [4] of 68.9%, a normalised viability [5] of 93.6% and a normalised viability [6] of 98.4%.
`COc1cc(F)c(F)c(Nc2ccc(I)cc2F)c1NS(=O)(=O)C1(C[C@H](O)CO)CC1` [Refametinib] (10000 nM) gave a normalised response [7] of 102%, a normalised response [8] of 69.6% and a normalised response [9] of 65.8%. The normalised response [10] was 101%, the normalised response [11] was 88.4% and the normalised response [12] was 97.9%. The normalised response [13] was 101%, the normalised response [14] was 82.1% and the normalised response [15] was 75.8%. For the same compound, the normalised response [16] was 64.1%, the normalised response [17] was 97.8% and the normalised response [18] was -53.7%. The normalised response [19] was 92%, the normalised response [20] was -0.94% and the normalised response [21] was 106%. The normalised response [22] was 95.6%, the normalised response [23] was 107% and the normalised response [24] was 99.6%. For the same compound, the normalised response [25] was 82.7%, the normalised response [26] was 0.11% and the normalised response [27] was 25%. It also gave a normalised response [28] of 92.5%, a normalised response [29] of 58.5% and a normalised response [30] of 41%. The normalised response [31] was 65.7%, the normalised response [32] was 77.2% and the normalised response [33] was 43.6%. It also gave a normalised response [34] of 65.8%, a normalised response [35] of 43.7% and a normalised response [36] of 55.1%. It also gave a normalised response [37] of 45.2%, a normalised response [38] of 55.7% and a normalised response [39] of 23.8%. It also gave a normalised response [40] of 67.3%, a normalised response [41] of 54.8% and a normalised response [42] of 102%. For the same compound, the normalised response [43] was 47.8%.
Work on `CC(=O)c1c(C)c2cnc(Nc3ccc(N4CCNCC4)cn3)nc2n(C2CCCC2)c1=O` (300 nM) yielded a normalised viability [1] of 74.3%, a normalised viability [2] of 102% and a normalised viability [3] of 81.1%. The normalised viability [4] was 52.7%, the normalised viability [5] was 102% and the normalised viability [6] was 89.8%.
Compound `CC(=O)N(O)CCCCCNC(=O)CCC(=O)N(O)CCCCCNC(=O)CCC(=O)N(O)CCCCCN` [Deferoxamine] (10000 nM) has a normalised response [7] of 102%, a normalised response [8] of 81.2% and a normalised response [9] of 105%. For the same compound, the normalised response [10] was 48%, the normalised response [11] was 90.9% and the normalised response [12] was 101%. The normalised response [13] was 81.3%, the normalised response [14] was 104% and the normalised response [15] was 37.6%. For the same compound, the normalised response [16] was 98.7%, the normalised response [17] was 113% and the normalised response [18] was 150%. The normalised response [19] was 103%, the normalised response [20] was 128% and the normalised response [21] was 79.9%. The normalised response [22] was 98.2%, the normalised response [23] was 92.8% and the normalised response [24] was 82.7%. For the same compound, the normalised response [25] was 89.6%, the normalised response [26] was 18.3% and the normalised response [27] was 57.5%. The normalised response [28] was 37.9%, the normalised response [29] was 64.1% and the normalised response [30] was 70.9%. The normalised response [31] was 54.5%, the normalised response [32] was 40.5% and the normalised response [33] was 64.6%. It also gave a normalised response [34] of 26.6%, a normalised response [35] of 71.8% and a normalised response [36] of 62%. It also gave a normalised response [37] of 37.7%, a normalised response [38] of 87.2% and a normalised response [39] of 78.8%. It also gave a normalised response [40] of 65%, a normalised response [41] of 48.8% and a normalised response [42] of 45.9%. It also gave a normalised response [43] of 76%.
